The source of these data is patent US20160113895A1, “Novel Use of Adapalene in Treating Esophageal Cancer and Gastrointestinal Stromal Tumor” (Biodelight Biotech Inc., priority 2013, published 2016).

Structures are written as SMILES. *1 amine or outer side, *2 acyl side, *3 side chain or, on linkers, in order; H or OH if unused. Where a SMILES comes first, the peptide text is derived from it. Bridges are numbered along the chain shown (N, C = ends). Roman numbers before positions name the chains, in order. [ ]: non-standard residue; d: D form. Actinocin(9to1) = Cc1c2oc3c(C)ccc(C(=O)[*:1])c3nc-2c(C(=O)[*:2])c(N)c1=O; NMeV = CN[C@H](C(=O)O)C(C)C; Sar = CNCC(=O)O

Usually IC50 stands for the point on the concentration scale where inhibition reaches its midpoint.

For data set [1], the system named is H460. Put plainly: 2D cell proliferation assay (Alamar Blue), H460. In kind it is cell-based, human. An excerpt: (§1) Nsl-8 was subjected to 2D cell proliferation assays using four NSCLC cell lines (A549 (human adenocarcinomic alveolar basal epithelial cells with k-ras gene mutation), H1299 (human non-small cell lung carcinoma cell line with p53 mutation), H460 (human non-small cell lung carcinoma cell line with k-ras gene mutation), and HCC827 (human NSCLC cells with EGFR mutation of deletion from E746 to A750)) and the results were presented in Table 2. There were eight concentrations used for each drug for determining its IC50. […]. Actinomycin D was a chemotherapeutic drug simply used as a quality control for all the experiments.
(§2) In the 2D cell proliferation assay, cells were cultured in DMEM containing 10% FCS and Penicillin/Streptomycin. For the assays, cells were seeded in 150 μL medium on a 96-well cell culture plate and incubated at 37° C. overnight before the compounds were added. Compounds were prepared as predilution which was 16 fold concentrated to the final assay concentration. A day after cell seeding, 10 μL of prediluted compounds was added to the cells (1:16 dilution). Treatment of cells with 0.1% DMSO or 1% DMSO (for the two top concentrations of nsl-8) and 1.0E-05 M Staurosporine was served as high control (100% viability) and low control (0% viability), respectively. Measurement of the impact of compounds on cell viability was performed as follows: 5000 cells (A549 and HCC827) or 2500 cells (H1299 and H460) were seeded in the inner wells of 96-well-plates in 150 μL complete medium. Next day, compounds were added to the medium to reach the final concentration and then incubated at 37° C. in 5% or 10% CO2 depending on the medium for 72 h. Subsequently 10 μL Alamar Blue reagent was added and fluorescence at 590 nm was measured after 5 h incubation at 37° C. in 5% CO2 using a fluorometer.
(§3) Raw data were converted into percent cell viability relative to high control (solvent 0.1% DMSO or 1% DMSO for the two top concentrations of drug nsl-8) and low control (1.0E-05 M Staurosporine), which were set to 100% and 0%, respectively.
A general note: The colour change of resazurin is a common sign of viable cells or microbes.

For data set [2], the system named is A549 implanted tumors. Kind of data set: Subcutaneous A549 xenograft model, groups 2a-2c, o.p. The settings on record: for Tumor inhibition rate (%): A549, o.p. once daily, NSL-8 70 mpk, Tarceva 20 mpk. How it is done:
The antitumor efficacy of the drug lead nsl-8 searched was studied using the subcutaneous xenografted A549 and HCC827 lung cancer tumor models in vivo. […] Mice were maintained in individual ventilated cages (IVC, max. 4 mice/cage) at constant temperature and humidity. Animal weights were determined three times (Monday, Wednesday and Friday) for groups 1a and 1b or two times (Monday and Thursday) for groups 2a-2c and 3a-3c animals. Animal behaviour was monitored daily.
On day 0, either 2×10^6 A549 or 2×10^6 HCC827 tumor cells in 100 μL PBS were implanted into the subcutaneous space of the left flank of all corresponding BALB/c nude and SCID mice, respectively. In the following, tumor sizes were determined by caliper measurement. Tumor sizes were calculated according to the formula W^2×Lg/2 (Lg=length and W=the perpendicular width of the tumor, L>W). On day 48 or 30, after mean tumor volumes had reached approx. 100 mm^3, the corresponding tumor-bearing animals were randomized into 2 groups of 8 (A549 model: groups 1a and 1b) or 10 animals (A549 model: groups 2a and 2b) according to tumor sizes. On day 24 or 28, after mean tumor volumes had reached approx. 100 mm^3, the corresponding tumor-bearing animals were randomized into 2 groups of 10 animals (HCC827 model: groups 3a and 3b) according to tumor sizes. […] The percentage of tumor growth inhibition (TGI) was calculated using the following formula: […]
where T and C represent the mean tumor volume of the treatment and the control group, respectively.
The solution was aliquoted into several 15 ml sterile centrifuge tubes in 650 μl quantity per tube and then stored frozen at −80° C. until use. […] Animals of group 1b received 40 mg/kg nsl-8 dosage solution once daily through i.p. route on days 48-52 and 62-66, while those of groups 2b and 3b received 70 mg/kg nsl-8 dosage solution once daily through o.p. route on days 1-14 (group 2b) and days 1-14 (group 3b), respectively (Table 4).
Groups 1a and 1b (A549 model) were terminated on day 69, while groups 2a-2c (A549 model) and 3a-3c (HCC827 model) were terminated on day 15. At necropsy, animals were killed by cervical dislocation. Primary tumor weights and volumes were determined. The tumor volume and weight were analysed using descriptive data analysis (Mean, SEM, Median). Statistical analysis of efficacy data was performed using the unpaired t-test. All the data analyses were performed using GraphPad Prism 5 from GraphPad Software, Inc., San Diego, USA.
The serum level of blood urea nitrogen (BUN) was measured for assessing the renal function while those of alanine aminotransferase (ALT) and aspartate aminotransferase (AST) were measured using Ektachem DT system (Johnson & Johnson Clinical Diagnostics) for assessing the liver function. The EDTA treated anticoagulated blood samples were also collected for making a complete peripheral blood count by using a Hematology Analyzer (Sysmex, XT-1800i).
For this study, 0.161 ml nsl-8 stock solution made in DMSO was mixed with 1.339 ml 0.9% w/v saline so that the volume of a final dosage solution prepared to feed an animal was 1.5 ml and containing 10% DMSO. Therefore, both administration routes and vehicles used in treating groups 2a-2b and 3a-3b animals were quite different from that used in treating groups 1a-1b animals.

Data set [3] has as its system A549. Kind of data set: 2D cell proliferation assay (Alamar Blue), A549. In kind it is cell-based, human. As to conditions: A549, 72 h.
Source text: as §1, §2, §3

Data set [4] relates to H1299. Put plainly: 2D cell proliferation assay (Alamar Blue), H1299. Type of data set: cell-based, human.
Source text: as §1, §2, §3

In data set [5] the test system is A549. Put plainly: 3D cell proliferation assay (soft agar), A549. In kind it is cell-based, human. The settings on record: 3D soft agar. As to the method: (§4) Drug nsl-8 was further subjected to a 3D cell proliferation assay for assessing its potential in inhibiting the growth of NSCLC tumors. The same four NSCLC cell lines used in 2D proliferation assays were grown in soft agar and the drug was added after the agar has solidified. The drug added cells were then incubated several days until colonies have formed in the solvent control. Subsequently, Alamar Blue which was a cell viability reagent was added and the corresponding fluorescence released was measured as an indirect quantification of colony growth in soft agar.
(§5) For each cell line, some 96 well culture plates were prepared. 100 μL of the soft agar bottom layer (0.6% final concentration in complete medium) was poured and left to solidify. 50 μL of the soft agar top layer (0.4% final concentration) containing the corresponding cells and cell number were then added on top, solidified and such 96 well plates were incubated overnight at 37° C. in 10% CO2. Next day, drugs were added at indicated final concentrations into the inner wells of the plate. Subsequently, the assays were incubated in cell culture incubators for the indicated period of time. Finally, the assays were developed using Alamar Blue and upon 3-5 h of incubation at 37 ° C. fluorescence intensity was determined (excitation: 560 nm, emission: 590 nm). […]

Data set [6] relates to HCC827. Kind of data set: 2D cell proliferation assay (Alamar Blue), HCC827. In kind it is cell-based, human. As to conditions: HCC827, 72 h. How it is done: There were eight concentrations used for each drug for determining its IC50. […] Actinomycin D was a chemotherapeutic drug simply used as a quality control for all the experiments.
as §2, with “Compounds were prepared as predilution which was 16 fold concentrated to the final assay concentration.” left out, “h.” for “h. Subsequently 10 μL Alamar Blue reagent was added and fluorescence at 590 nm was measured after 5 h incubation at 37° C. in 5% CO2 using a fluorometer.”
as §3

The test system of data set [7] is H1299. Put plainly: 3D cell proliferation assay (soft agar), H1299. Type of data set: cell-based, human. The settings on record: 3D soft agar. As to the method:
as §4, §5

Data set [8] relates to H460. Kind of data set: 3D cell proliferation assay (soft agar), H460. In kind it is cell-based, human. As to conditions: 3D soft agar. How it is done: as §4, §5
Data set [9] relates to HCC827. Kind of data set: 3D cell proliferation assay (soft agar), HCC827. Type of data set: cell-based, human. As to conditions: 3D soft agar. As to the method:
as §4, §5

As to `C#Cc1cccc(Nc2ncnc3cc(OCCOC)c(OCCOC)cc23)c1` [Erlotinib], the IC50 is > 10000 nM in [1] (Homo sapiens, NCI-H460, 72 h); > 10000 nM in [3] (Homo sapiens); > 10000 nM in data set [4] (Homo sapiens, NCI-H1299, 72 h). Besides, in [2] (A549 model, peripheral blood at end-point, nsl-8 70 mg/kg, Tarceva 20 mg/kg o.p.), the “cell counts of white blood cell, red blood cell, or platelet versus vehicle” value is on record as “no significant difference”. The “serum levels of BUN, ALT, and AST among treatment groups” value in data set [2] (A549 model, upon completion of the experiments) is “no significant difference”. The “Tumor inhibition rate (%)” value in data set [2] (Day 0) is given as 0%; in data set [2] (Day 3), −16.7%; in data set [2] (Day 7) it was −19.0%; in data set [2] (Day 10) it was −22.0%; in data set [2] (Day 14) it was −29.6%. In data set [2] (group 2c, 20 mg/kg o.p. daily), the “inhibition in growth of A549 implanted tumors (in words)” value is “no inhibition”.
`Cc1c2oc3c(C)ccc(C(=O)N[C@@H]4C(=O)N[C@H](C(C)C)C(=O)N5CCC[C@H]5C(=O)N(C)CC(=O)N(C)[C@@H](C(C)C)C(=O)O[C@@H]4C)c3nc-2c(C(=O)N[C@@H]2C(=O)N[C@H](C(C)C)C(=O)N3CCC[C@H]3C(=O)N(C)CC(=O)N(C)[C@@H](C(C)C)C(=O)O[C@@H]2C)c(N)c1=O` [Actinomycin D] (I: T[dV]P[Sar][NMeV] / II: T[dV]P[Sar][NMeV]; ester I:1-I:C, II:1-II:C; linker I:N-II:N via Actinocin(9to1)): the IC50 in data set [1] (2D, H460, 72 h, read-out: IC50) turned out to be 0.42 nM; in data set [5] it was 0.84 nM; in data set [3] (2D, read-out: IC50), 0.92 nM; in [6], 12 nM; in data set [7], 0.82 nM; in [8] it was 0.67 nM. The IC50 was found to be 0.31 nM in data set [4] (2D, H1299, 72 h, read-out: IC50) and 0.24 nM in data set [9].
